Read-outs that look alike come from different tables or passages of the source. Values belong to the compound of their own block, whether it stands above or below them.
Legend:
[1] = biological target: recombinant human PIM1 (Homo sapiens (Human), UniProt P11309); experiment: PIM-1 kinase activity in cell-free in vitro assay; type: biochemical; conditions: for inhibition at 0.5 µM: read-out: PIM-1: % inh 500 nM
[2] = system: HCT-116 human colorectal carcinoma cells; experiment: Cell-proliferation assay using Alamar Blue dye; type: cell-based;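 also: cells exposed to compound for about 4 days, then Alamar Blue added and dye fluorescence read after about 4 h, compared with medium-only control wells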
[3] = Homo sapiens, HCT-116, HCT-116, first column, read-out: HCT-116 (uM), cell proliferation modulatory activity
[4] = Homo sapiens, HCT-116, HCT-116, second column, read-out: HCT-116 (uM), cell proliferation modulatory activity
[5] = 500 nM compound, cell-free assay
[6] = Homo sapiens, HCT-116, read-out: HCT-116 (uM), cell proliferation modulatory activity, HCT-116, second HCT-116 column (c8)
[7] = Homo sapiens, HCT-116, HCT-116, second HCT-116 column (c8), read-out: HCT-116 (uM), cell proliferation modulatory activity
[8] = Homo sapiens, HCT-116, read-out: HCT-116 (uM), cell proliferation modulatory activity, HCT-116, second column
[9] = Homo sapiens, HCT-116, read-out: HCT-116 (uM), cell proliferation modulatory activity, HCT-116, first column

recombinant human PIM1, sequence (P11309 whole entry): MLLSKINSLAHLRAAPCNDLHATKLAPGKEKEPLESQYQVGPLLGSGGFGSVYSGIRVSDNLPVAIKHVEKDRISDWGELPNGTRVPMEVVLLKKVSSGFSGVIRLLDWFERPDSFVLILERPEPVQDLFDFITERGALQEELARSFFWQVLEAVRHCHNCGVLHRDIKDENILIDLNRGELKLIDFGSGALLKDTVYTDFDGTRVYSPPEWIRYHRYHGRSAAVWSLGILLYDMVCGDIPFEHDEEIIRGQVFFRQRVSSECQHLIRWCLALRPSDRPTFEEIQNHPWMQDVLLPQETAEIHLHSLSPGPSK

Compound: C#Cc1cccc(Nc2nc3cc(C(=O)O)ccc3c3cnc(NCCOC)nc23)c1
inhibition at 0.5 µM [1, 5]: 55.5%
IC50 ([1]; cell-free assay): > 1.1 µM
IC50 [2, 6]: 8.05 µM

Compound: c1ccc2c(c1)ncn2-c1nc2cc(-c3nnn[nH]3)ccc2c2sccc12
inhibition at 0.5 µM ([1]; 500 nM compound, cell-free): 71.6%
IC50 ([1]; cell-free): > 1.1 µM
IC50 [2, 4]: 15 µM

Compound: CN1CCN(c2nc3cc(C(=O)NCc4cncn4C)ccc3c3sccc23)CC1
inhibition at 0.5 µM [1, 5]: -22.5%
IC50 [2, 7]: > 10 µM

Compound: Cc1cc(CNC(=O)c2cccc(Nc3nc4cc(-c5nnn[nH]5)ccc4c4sccc34)c2)no1 [drawing 1508]
PIM-1: % inh 500 nM ([1]; 500 nM compound, cell-free): 55.402%
IC50 ([1]; cell-free): 0.581 µM
IC50 ([2]; read-out: HCT-116 (uM), cell proliferation modulatory activity, HCT-116): > 10 µM

Compound: O=c1[nH]c2cc(-c3nnn[nH]3)ccc2c2cnccc12 [drawing 1444]
inhibition at 0.5 µM ([1]; 500 nM compound, cell-free): 3.3%
IC50 [2, 4]: 15 µM

Compound: O=C(O)c1ccc2c(c1)nc(Nc1cc(F)ccc1F)c1ccsc12
inhibition at 0.5 µM ([1]; 500 nM compound, cell-free): 67.1%
IC50 ([1]; cell-free): 0.308 µM
IC50 [2, 8]: > 10 µM

Compound: c1cc2c(Nc3ccc4c(c3)OCO4)nc3cc(-c4nnn[nH]4)ccc3c2s1
inhibition at 0.5 µM ([1]; 500 nM compound, cell-free): 18%
IC50 [2, 4]: > 10 µM

Compound: COc1ccc(Nc2nc3cc(C(=O)O)ccc3c3sccc23)cc1Cl
inhibition at 0.5 µM ([1]; 500 nM compound, cell-free): -2.65%
IC50 [2, 9]: 10 µM

Compound: CN1CCN(c2nc3cc(C(=O)NCC4CCCO4)ccc3c3sccc23)CC1 (stereo not drawn)
inhibition at 0.5 µM [1, 5]: 11%
IC50 [2, 7]: > 10 µM

Compound: N#Cc1ccc2c(c1)nc(N1CCN(CCO)CC1)c1ccsc12
inhibition at 0.5 µM [1, 5]: -17.6%
IC50 [2, 7]: 9.38 µM

Compound: Clc1nc2ccccc2c2sccc12
inhibition at 0.5 µM ([1]; 500 nM compound, cell-free): -22.1%
IC50 [2, 3]: 10 µM

Compound: CONC(=O)c1ccc2c(c1)nc(N1CCN(C)CC1)c1ccsc12
inhibition at 0.5 µM [1, 5]: -0.965%
IC50 [2, 7]: > 10 µM

Compound: CN(C)C(=O)c1cccc(Nc2nc3cc(-c4nnn[nH]4)ccc3c3sccc23)c1
inhibition at 0.5 µM ([1]; 500 nM compound, cell-free): 49.1%
IC50 [2, 8]: > 10 µM

Compound: O=C(O)c1ccc2c(c1)nc(Nc1cccc(Cl)c1F)c1ccsc12
inhibition at 0.5 µM ([1]; 500 nM compound, cell-free): 27.6%
IC50 [2, 8]: > 10 µM

Compound: O=C(c1cccc(Nc2nc3cc(-c4nnn[nH]4)ccc3c3sccc23)c1)N1CCOCC1
inhibition at 0.5 µM ([1]; 500 nM compound, cell-free): 21%
IC50 [2, 8]: > 10 µM

Compound: COc1ccc(Nc2nc3cc(-c4nnn[nH]4)ccc3c3sccc23)cc1Cl
inhibition at 0.5 µM ([1]; 500 nM compound, cell-free): 25.6%
IC50 [2, 9]: 10 µM

Compound: CN1CCN(c2nc3cc(C(=O)NCc4nccn4C)ccc3c3sccc23)CC1
inhibition at 0.5 µM [1, 5]: -14.5%
IC50 [2, 7]: > 10 µM

Compound: Cc1cc(CNC(=O)c2cccc(Nc3nc4cc(-c5nnn[nH]5)ccc4c4sccc34)c2)no1 [drawing 1507]
inhibition at 0.5 µM ([1]; 500 nM compound, cell-free): 37.6%
IC50 [2, 8]: > 10 µM

Compound: O=C(O)c1ccc2c(c1)nc(NC1CC1)c1ccsc12
inhibition at 0.5 µM ([1]; 500 nM compound, cell-free): 37.4%
IC50 [2, 9]: 10 µM

Compound: O=C(O)c1ccc2c(c1)nc(NCc1cccnc1)c1nc(NC3CC3)ncc12 [drawing 1625]
inhibition at 0.5 µM [1, 5]: 26.9%
IC50 [2, 6]: > 10 µM

Compound: O=C(O)c1ccc2c(c1)nc(Nc1cccc(S(=O)(=O)NC3CC3)c1)c1ccsc12
inhibition at 0.5 µM ([1]; 500 nM compound, cell-free): 75.4%
IC50 ([1]; cell-free): 0.568 µM
IC50 [2, 8]: > 10 µM

Compound: CN1CCN(c2nc3cc(C(=O)O)ccc3c3cnccc23)CC1
inhibition at 0.5 µM [1, 5]: 40.1%
IC50 [2, 7]: > 10 µM

Compound: O=C(O)c1ccc2c(c1)nc(N1CCCC1)c1ccsc12
inhibition at 0.5 µM ([1]; 500 nM compound, cell-free): -16%
IC50 [2, 3]: 10 µM

Compound: CC(C)Oc1cccc(Nc2nc3cc(-c4nnn[nH]4)ccc3c3sccc23)c1
inhibition at 0.5 µM ([1]; 500 nM compound, cell-free): 31.9%
IC50 [2, 8]: > 10 µM

Compound: COc1ccc(OC)c(Nc2nc3cc(C(=O)O)ccc3c3sccc23)c1
inhibition at 0.5 µM ([1]; 500 nM compound, cell-free): -3.22%
IC50 [2, 9]: 10 µM

Compound: CN1CCN(c2nc3cc(C(=O)NCc4cccnc4)ccc3c3sccc23)CC1
inhibition at 0.5 µM [1, 5]: -16%
IC50 [2, 7]: > 10 µM

Compound: NC(=O)c1ccc2c(c1)[nH]c(=O)c1ccncc12
inhibition at 0.5 µM ([1]; 500 nM compound, cell-free): 4.18%
IC50 [2, 4]: > 10 µM

Compound: Fc1ccc(Nc2nc3cc(-c4nnn[nH]4)ccc3c3sccc23)cc1Cl
inhibition at 0.5 µM ([1]; 500 nM compound, cell-free): 67.4%
IC50 ([1]; cell-free): 0.702 µM
IC50 [2, 9]: 10 µM

Compound: O=C(O)c1ccc2c(c1)nc(NCc1ccccn1)c1ccsc12
inhibition at 0.5 µM ([1]; 500 nM compound, cell-free): -36.6%
IC50 [2, 9]: 10 µM

Compound: COC(=O)c1ccc2c(c1)nc(Cl)c1ccsc12 [drawing 1375]
inhibition at 0.5 µM ([1]; 500 nM compound, cell-free): -30%
IC50 [2, 3]: 10 µM

Compound: O=C(O)c1ccc2c(c1)nc(N1CCc3ccccc31)c1ccsc12
inhibition at 0.5 µM ([1]; 500 nM compound, cell-free): -9.95%
IC50 [2, 9]: 10 µM

Compound: CCOC(=O)c1cccc(Nc2nc3cc(-c4nnn[nH]4)ccc3c3sccc23)c1
inhibition at 0.5 µM ([1]; 500 nM compound, cell-free): 34%
IC50 [2, 4]: > 10 µM

Compound: Cc1cc(Nc2ncc3c(n2)c(Nc2ccc(F)c(Cl)c2)nc2cc(C(=O)O)ccc23)[nH]n1 [drawing 1635]
inhibition at 0.5 µM [1, 5]: 66.1%
IC50 [2, 6]: > 10 µM

Compound: O=C(O)c1ccc2c(c1)nc(OCCCO)c1ccsc12
inhibition at 0.5 µM ([1]; 500 nM compound, cell-free): -34.7%
IC50 [2, 9]: 10 µM

Compound: CN(C)CCCNc1nc2cc(-c3nnn[nH]3)ccc2c2sccc12
inhibition at 0.5 µM ([1]; 500 nM compound, cell-free): 58.2%
IC50 ([1]; cell-free): 0.511 µM
IC50 [2, 4]: 15 µM

More lines, now with the values ahead:

inhibition at 0.5 µM ([1]; 500 nM compound, cell-free): 15.8%
IC50 [2, 3]: 10 µM
Compound: c1ccc(Nc2nc3cc(-c4nnn[nH]4)ccc3c3ccccc23)cc1

inhibition at 0.5 µM ([1]; 500 nM compound, cell-free): 9.03%
IC50 [2, 4]: 15 µM
Compound: c1ccc(COc2ccc(Nc3nc4cc(-c5nnn[nH]5)ccc4c4sccc34)cc2)cc1

inhibition at 0.5 µM ([1]; 500 nM compound, cell-free): 47.2%
IC50 [2, 8]: > 10 µM
Compound: O=C(O)c1ccc2c(c1)nc(Nc1ccc3cc[nH]c3c1)c1ccsc12

inhibition at 0.5 µM ([1]; 500 nM compound, cell-free): 59.1%
IC50 ([1]; cell-free): 0.53 µM
IC50 [2, 8]: > 10 µM
Compound: Cc1cccc(Nc2nc3cc(C(=O)O)ccc3c3sccc23)c1

inhibition at 0.5 µM [1, 5]: 83.4%
IC50 ([1]; cell-free assay): 0.397 µM
IC50 [2, 7]: > 10 µM
Compound: NS(=O)(=O)c1cccc(Nc2nc3cc(C(=O)O)ccc3c3cnccc23)c1

inhibition at 0.5 µM ([1]; 500 nM compound, cell-free): 7.28%
IC50 [2, 3]: 10 µM
Compound: OCCCOc1nc2ccccc2c2ccccc12

inhibition at 0.5 µM ([1]; 500 nM compound, cell-free): 66.7%
IC50 ([1]; cell-free): 0.32 µM
IC50 [2, 9]: 10 µM
Compound: O=C(O)c1ccc2c(c1)nc(Nc1ccc(F)cc1)c1ccsc12

inhibition at 0.5 µM ([1]; 500 nM compound, cell-free): 56.9%
IC50 [2, 3]: 10 µM
Compound: CN(C)CCNc1nc2cc(-c3nnn[nH]3)ccc2c2ccccc12

inhibition at 0.5 µM [1, 5]: 56%
IC50 ([1]; cell-free assay): > 1.1 µM
IC50 ([2]; Homo sapiens, HCT-116, second HCT-116 column (c8), read-out: HCT-116 (uM) cell proliferation modulatory activity): > 10 µM
Compound: O=C(O)c1ccc2c(c1)nc(Nc1cc(-c3ccccc3)[nH]n1)c1ccncc12

inhibition at 0.5 µM ([1]; 500 nM compound, cell-free): 2.12%
IC50 [2, 4]: 6.9 µM
Compound: N#Cc1ccc2c(c1)nc(Nc1ccccc1)c1ccncc12

inhibition at 0.5 µM ([1]; 500 nM compound, cell-free): -65.4%
IC50 [2, 3]: 10 µM
Compound: N#Cc1ccc2c(c1)nc(Nc1ccccc1)c1ccccc12

inhibition at 0.5 µM ([1]; 500 nM compound, cell-free): 40.5%
IC50 [2, 8]: > 10 µM
Compound: O=C(O)c1ccc2c(c1)nc(Nc1cccc(I)c1)c1ccsc12

inhibition at 0.5 µM ([1]; 500 nM compound, cell-free): 51.6%
IC50 ([1]; cell-free): 0.814 µM
IC50 [2, 8]: > 10 µM
Compound: CCc1cccc(Nc2nc3cc(C(=O)O)ccc3c3sccc23)c1

inhibition at 0.5 µM ([1]; 500 nM compound, cell-free): 57.9%
IC50 ([1]; cell-free): 0.553 µM
IC50 [2, 8]: > 10 µM
Compound: O=C(O)c1ccc2c(c1)nc(Nc1cccc(Br)c1)c1ccsc12

inhibition at 0.5 µM ([1]; 500 nM compound, cell-free): -3.12%
IC50 [2, 9]: 10 µM
Compound: O=C(O)c1ccc2c(c1)nc(Nc1ccccc1O)c1ccsc12

inhibition at 0.5 µM ([1]; 500 nM compound, cell-free): 13.3%
IC50 [2, 8]: > 10 µM
Compound: CCCNC(=O)c1cccc(Nc2nc3cc(C(=O)O)ccc3c3sccc23)c1

inhibition at 0.5 µM ([1]; 500 nM compound, cell-free): -15.5%
IC50 [2, 9]: 10 µM
Compound: Cc1ccccc1Nc1nc2cc(C(=O)O)ccc2c2sccc12

inhibition at 0.5 µM ([1]; 500 nM compound, cell-free): 2.59%
IC50 [2, 3]: 10 µM
Compound: COC(=O)c1ccc2c(c1)nc(Nc1ccccc1)c1ccsc12

inhibition at 0.5 µM [1, 5]: 73.6%
IC50 ([1]; cell-free assay): 0.369 µM
IC50 [2, 7]: > 10 µM
Compound: CC(=O)Nc1cccc(Nc2nc3cc(C(=O)O)ccc3c3cnccc23)c1

inhibition at 0.5 µM ([1]; 500 nM compound, cell-free): -21.2%
IC50 [2, 4]: > 10 µM
Compound: c1ccc(CNc2nc3cc(-c4nnn[nH]4)ccc3c3sccc23)cc1

inhibition at 0.5 µM ([1]; 500 nM compound, cell-free): 3.04%
IC50 [2, 3]: 10 µM
Compound: N#Cc1ccc2c(c1)nc(OCCCO)c1ccccc12

inhibition at 0.5 µM ([1]; 500 nM compound, cell-free): 21.7%
IC50 [2, 8]: > 10 µM
Compound: NS(=O)(=O)c1cccc(Nc2nc3cc(C(=O)O)ccc3c3sccc23)c1

inhibition at 0.5 µM ([1]; 500 nM compound, cell-free): -63.6%
IC50 [2, 3]: 0.5 µM
Compound: CN(C)CCNc1nc2cc(C#N)ccc2c2ccccc12

inhibition at 0.5 µM ([1]; 500 nM compound, cell-free): 38%
IC50 [2, 8]: > 10 µM
Compound: CNC(=O)Cc1cccc(Nc2nc3cc(C(=O)O)ccc3c3sccc23)c1

— patent US8168651B2, “Protein kinase modulators” (Cylene Pharmaceuticals, Inc., priority 2008, dated 2012)
